Measured values reported in US20080119491A1, “AMIDINOHETEROCYCLES AS MODULATORS OF INDOLEAMINE 2,3-DIOXYGENASE” (INCYTE CORPORATION, priority 2006, published 2008).

Target: T1, Human indoleamine 2,3-dioxygenasae (IDO) (Homo sapiens, UniProt P14902)
T1 construct: His tag (N); made in house; host or cells: E. coli
Test: Human indoleamine 2,3-dioxygenase (IDO) enzyme assay
Format: biochemical
Conditions: 95 nM IDO, 2 mM D-Trp, pH 6.5, room temperature
Method: Human indoleamine 2,3-dioxygenasae (IDO) with an N-terminal His tag was expressed in E. coli and purified to homogeneity. IDO catalyzes the oxidative cleavage of the pyrrole ring of the indole nucleus of tryptophan to yield N′-formylkynurenine. The assays were performed at room temperature as described in the literature using 95 nM IDO and 2 mM D-Trp in the presence of 20 mM ascorbate, 5 μM methylene blue and 0.2 mg/mL catalase in 50 mM potassium phosphate buffer (pH 6.5). The initial reaction rates were recorded by continuously following the absorbance increase at 321 nm due to the formation of N′-formlylkynurenine. See: Sono, M., Taniguchi, T., Watanabe, Y., and Hayaishi, O. (1980) J. Biol. Chem. 255, 1339-1345. […] The symbol “+” indicates […]. The symbol “+++” indicates IC50>[…]

T1 sequence (P14902 whole entry): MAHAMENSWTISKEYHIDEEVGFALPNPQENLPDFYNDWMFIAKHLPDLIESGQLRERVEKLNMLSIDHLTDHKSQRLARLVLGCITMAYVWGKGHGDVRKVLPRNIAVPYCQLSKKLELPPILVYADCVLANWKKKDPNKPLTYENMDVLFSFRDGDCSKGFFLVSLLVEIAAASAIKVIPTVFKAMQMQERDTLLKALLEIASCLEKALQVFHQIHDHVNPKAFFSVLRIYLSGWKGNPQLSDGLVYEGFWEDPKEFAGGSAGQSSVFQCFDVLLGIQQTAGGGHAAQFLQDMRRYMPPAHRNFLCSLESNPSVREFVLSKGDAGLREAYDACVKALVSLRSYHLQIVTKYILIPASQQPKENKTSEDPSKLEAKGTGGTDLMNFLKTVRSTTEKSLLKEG

IC50, > 10 µM:
COc1ccc(CNc2nccnc2C(=NO)Nc2cccc(C(F)(F)F)c2)cc1 [Example 1, NA-Hydroxy-3-[(4-methoxybenzyl)amino]-N-[3-(trifluoromethyl)phenyl]-pyrazine-2-carboximidamide]
Nc1nccnc1C(=NO)Nc1cccc(C(F)(F)F)c1 [Example 2, 3-Amino-N′-hydroxy-N-[3-(trifluoromethyl)phenyl]pyrazine-2-carboximidamide]
Nc1nccnc1C(=NO)Nc1ccc(F)c(C(F)(F)F)c1 [Example 4, 3-amino-N′-hydroxy-N-[3-(tri-fluoromethyl), 4-fluorophenyl]-pyrazine-2-carboximidamide]
COc1ccc(CNc2nccnc2C(=NO)Nc2ccc(F)c(Cl)c2)cc1 [Example 5]
Nc1nccnc1C(=NO)Nc1ccc(F)c(Cl)c1 [Example 6, 3-amino-N′-hydroxy-N-[3-chloro,4-fluorophenyl]pyrazine-2-carbox-imidamide]
ON=C(Nc1cccc(C(F)(F)F)c1)c1cnccn1 [Example 7, N′-hydroxy-N-[3-(trifluoromethyl)-phenyl]pyrazine-2-carbox-imidamide]
ON=C(Nc1cccc(C(F)(F)F)c1)c1cccnc1 [Example 8, N′-hydroxy-N-[3-(trifluoromethyl)-phenyl]pyridine-3-carbox-imidamide]
ON=C(Nc1ccc(F)c(Cl)c1)c1cccc(Oc2ccccc2)c1 [Example 10, N-(3-chloro-4-fluorophenyl)-N′-hydroxy-3-phenoxybenzene-carboximidamide]
Cc1ccc(Cl)cc1CNC(=NO)c1cccnn1 [Example 13, N-(5-chloro-2-methylbenzyl)-N′-hydroxypyridazine-3-carboximidamide]
